Experimental data as given in patent publication US9376429B2, “Sodium channel blockers, preparation method thereof and use thereof” (Daewoong Pharmaceutical Co., Ltd., priority 2012, dated 2016).

Biological target: T1, sodium ion channel (Nav1.7) (Homo sapiens, UniProt Q15858)
T1 construct: host or cells: HEK293
Assay: Blocking effect against sodium ion channel (Nav1.7), IonFlux16 auto patch clamp, hNav1.7 HEK293 cells
Assay type: cell-based
Conditions: peak current after 50 seconds treatment, eight concentrations
Summary of the method: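 HEK293 cells stably expressing human Nav1.7 were recorded by IonFlux16 automated patch clamp in extracellular solution (pH 7.45, final DMSO ≤0.3%). Peak current was measured after 50 s exposure to each of eight compound concentrations and expressed as percent inhibition relative to pre-compound current.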

T1 sequence (Q15858 whole entry): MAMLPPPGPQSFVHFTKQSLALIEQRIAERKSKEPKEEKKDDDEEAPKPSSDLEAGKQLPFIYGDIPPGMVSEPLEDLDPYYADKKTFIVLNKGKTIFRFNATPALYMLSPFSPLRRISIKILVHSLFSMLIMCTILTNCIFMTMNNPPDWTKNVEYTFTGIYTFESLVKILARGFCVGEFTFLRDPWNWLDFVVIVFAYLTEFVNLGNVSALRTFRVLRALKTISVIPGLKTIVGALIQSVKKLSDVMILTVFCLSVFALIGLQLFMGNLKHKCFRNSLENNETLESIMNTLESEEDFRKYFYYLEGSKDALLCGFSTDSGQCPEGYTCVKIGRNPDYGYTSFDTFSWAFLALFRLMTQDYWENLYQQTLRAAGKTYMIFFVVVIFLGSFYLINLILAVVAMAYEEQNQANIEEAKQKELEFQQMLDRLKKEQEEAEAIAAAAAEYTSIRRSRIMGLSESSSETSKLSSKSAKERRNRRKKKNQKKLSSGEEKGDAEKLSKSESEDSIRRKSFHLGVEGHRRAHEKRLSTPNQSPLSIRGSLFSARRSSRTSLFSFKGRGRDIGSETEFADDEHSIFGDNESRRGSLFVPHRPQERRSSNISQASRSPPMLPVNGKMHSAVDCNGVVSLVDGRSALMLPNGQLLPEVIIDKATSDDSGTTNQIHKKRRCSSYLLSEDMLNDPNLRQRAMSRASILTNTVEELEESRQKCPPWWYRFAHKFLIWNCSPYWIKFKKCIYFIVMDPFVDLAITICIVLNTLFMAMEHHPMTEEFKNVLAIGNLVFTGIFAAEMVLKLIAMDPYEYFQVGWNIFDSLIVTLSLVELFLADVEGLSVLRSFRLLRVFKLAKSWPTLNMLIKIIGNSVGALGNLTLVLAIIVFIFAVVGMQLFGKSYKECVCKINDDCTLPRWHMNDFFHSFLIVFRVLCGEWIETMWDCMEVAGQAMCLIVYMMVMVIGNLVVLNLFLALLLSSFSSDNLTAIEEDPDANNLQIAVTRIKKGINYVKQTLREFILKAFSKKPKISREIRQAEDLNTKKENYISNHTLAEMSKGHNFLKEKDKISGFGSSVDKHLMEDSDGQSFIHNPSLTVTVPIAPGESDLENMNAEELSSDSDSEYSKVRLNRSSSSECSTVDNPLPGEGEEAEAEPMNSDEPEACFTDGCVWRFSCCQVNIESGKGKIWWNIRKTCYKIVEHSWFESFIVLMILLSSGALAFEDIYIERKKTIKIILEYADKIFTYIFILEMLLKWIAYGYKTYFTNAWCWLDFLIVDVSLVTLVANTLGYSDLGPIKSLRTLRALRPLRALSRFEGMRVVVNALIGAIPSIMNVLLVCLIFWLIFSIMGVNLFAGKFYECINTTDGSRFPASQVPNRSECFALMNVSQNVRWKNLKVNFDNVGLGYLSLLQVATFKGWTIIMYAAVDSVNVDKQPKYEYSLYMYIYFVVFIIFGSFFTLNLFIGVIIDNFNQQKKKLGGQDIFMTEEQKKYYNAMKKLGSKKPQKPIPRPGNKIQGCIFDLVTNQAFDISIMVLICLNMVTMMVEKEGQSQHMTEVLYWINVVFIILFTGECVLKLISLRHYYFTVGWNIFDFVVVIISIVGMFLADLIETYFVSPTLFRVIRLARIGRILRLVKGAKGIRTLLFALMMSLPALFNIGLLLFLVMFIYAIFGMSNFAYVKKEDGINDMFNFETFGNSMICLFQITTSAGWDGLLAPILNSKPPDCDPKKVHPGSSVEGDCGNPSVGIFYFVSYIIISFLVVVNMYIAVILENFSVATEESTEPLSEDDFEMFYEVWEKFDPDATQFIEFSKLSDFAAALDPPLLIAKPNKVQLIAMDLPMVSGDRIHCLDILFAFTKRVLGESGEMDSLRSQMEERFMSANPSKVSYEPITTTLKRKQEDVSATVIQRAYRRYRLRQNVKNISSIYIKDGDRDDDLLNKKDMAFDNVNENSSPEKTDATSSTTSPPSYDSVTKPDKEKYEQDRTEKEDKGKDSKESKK

Row | Structure (SMILES) | IC50 [nM]
1 | O=S(=O)(Nc1cscn1)c1cc(Cl)c(Oc2ccc(-c3ccc(F)nc3)nc2-c2ccoc2)cc1F [Example 130, 5-chloro-2-fluoro-4-((6′-fluoro-6-(furan-3-yl)-[2,3′-bipyridin]-5-yl)oxy)-N-(thiazol-4-yl)benzenesulfonamide] | > 100
2 | O=S(=O)(Nc1cscn1)c1cc(Cl)c(Oc2ccc(-c3ccc(F)cc3)nc2-c2ccoc2)cc1F [Example 131, 5-chloro-2-fluoro-4-((6-(4-fluorophenyl)-2-(furan-3-yl)pyridin-3-yl)oxy)-N-(thiazol-4-yl)benzenesulfonamide] | 51 to 100
3 | O=S(=O)(Nc1cscn1)c1cc(Cl)c(Oc2ccc(-c3ccnc(F)c3)nc2-c2ccoc2)cc1F [Example 132, 5-chloro-2-fluoro-4-((2′-fluoro-6-(furan-3-yl)-[2,4′-bipyridin]-5-yl)oxy)-N-(thiazol-4-yl)benzenesulfonamide] | > 100
4 | O=S(=O)(Nc1cscn1)c1cc(Cl)c(Oc2ccc(-c3ccccc3F)nc2-c2ccoc2)cc1F [Example 133, 5-chloro-2-fluoro-4-((6-(2-fluorophenyl)-2-(furan-3-yl)pyridin-3-yl)oxy)-N-(thiazol-4-yl)benzenesulfonamide] | > 100
5 | Cn1nccc1-c1nc(-c2ccc(F)nc2F)ccc1Oc1cc(F)c(S(=O)(=O)Nc2cscn2)cc1Cl [Example 134, 5-chloro-4-((2′,6′-difluoro-6-(1-methyl-1H-pyrazol-5-yl)-[2,3′-bipyridin]-5-yl)oxy)-2-fluoro-N-(thiazol-4-yl)benzenesulfonamide] | > 100
6 | Cn1nccc1-c1nc(-c2ccc(F)nc2)ccc1Oc1cc(F)c(S(=O)(=O)Nc2cscn2)cc1Cl [Example 137, 5-chloro-2-fluoro-4-((6′-fluoro-6-(1-methyl-1H-pyrazol-5-yl)-[2,3′-bipyridin]-5-yl)oxy)-N-(thiazol-4-yl)benzenesulfonamide] | > 100
7 | Cn1nccc1-c1cc(Cl)ccc1C(O)c1ccc(S(=O)(=O)Nc2nccs2)cc1 (stereo not shown) [Example 138, 4-((4-chloro-2-(1-methyl-1H-pyrazol-5-yl)phenyl)(hydroxy)methyl)-N-(thiazol-2-yl)benzenesulfonamide] | > 100
8 | O=S(=O)(Nc1nccs1)c1ccc(C(O)c2ccc(Cl)cc2-c2cn[nH]c2)c(F)c1 (stereo not shown) [Example 139, 4-((4-chloro-2-(1H-pyrazol-4-yl)phenyl)(hydroxy)methyl)-3-fluoro-N-(thiazol-2-yl)benzenesulfonamide] | > 100
9 | O=S(=O)(Nc1nccs1)c1ccc(C(O)c2ccc(Cl)cc2-c2ccoc2)c(F)c1 (stereo not shown) [Example 140, 4-((4-chloro-2-(furan-3-yl)phenyl)(hydroxy)methyl)-3-fluoro-N-(thiazol-2-yl)benzenesulfonamide] | > 100
10 | O=S(=O)(Nc1nccs1)c1ccc(C(O)c2ccc(-c3ccoc3)cc2-c2ccoc2)c(F)c1 (stereo not shown) [Example 141, 4-((2,4-di(furan-3-yl)phenyl)(hydroxy)methyl)-3-fluoro-N-(thiazol-2-yl)benzenesulfonamide] | > 100
11 | Cn1nccc1-c1ccccc1C(O)c1ccc(S(=O)(=O)Nc2nccs2)cc1F (stereo not shown) [Example 142, 3-fluoro-4-(hydroxy(2-(1-methyl-1H-pyrazol-5-yl)phenyl)methyl)-N-(thiazol-2-yl)benzenesulfonamide] | > 100
12 | O=S(=O)(Nc1nccs1)c1ccc(C(O)c2ccc(Cl)cc2-c2ccoc2)cc1 (stereo not shown) [Example 143, 4-((4-chloro-2-(furan-3-yl)phenyl)(hydroxy)methyl)-N-(thiazol-2-yl)benzenesulfonamide] | < 50
13 | O=S(=O)(Nc1nccs1)c1ccc(C(O)c2ccc(Cl)cc2-c2cccnc2)c(F)c1 (stereo not shown) [Example 145, 4-((4-chloro-2-(pyridin-3-yl)phenyl)(hydroxy)methyl)-3-fluoro-N-(thiazol-2-yl)benzenesulfonamide] | > 100
14 | O=S(=O)(Nc1nccs1)c1ccc(C(O)c2ccc(Cl)cc2-c2ccncc2)cc1 (stereo not shown) [Example 147, 4-((4-chloro-2-(pyridin-4-yl)phenyl)(hydroxy)methyl)-N-(thiazol-2-yl)benzenesulfonamide] | > 100
15 | O=S(=O)(Nc1nccs1)c1ccc(C(O)c2ccc(-c3ccoc3)cc2-c2ccoc2)cc1 (stereo not shown) [Example 149, 4-((2,4-di(furan-3-yl)phenyl)(hydroxy)methyl)-N-(thiazol-2-yl)benzenesulfonamide] | > 100
16 | O=S(=O)(Nc1nccs1)c1ccc(C(O)c2ccc(-c3ccccc3F)cc2-c2ccoc2)cc1 (stereo not shown) [Example 152, 4-((2′-fluoro-3-(furan-3-yl)-[1,1′-biphenyl]-4-yl)(hydroxy)methyl)-N-(thiazol-2-yl)benzenesulfonamide] | > 100
17 | O=S(=O)(Nc1nccs1)c1ccc(C(O)c2ccc(-c3cccc(F)c3)cc2-c2ccoc2)cc1 (stereo not shown) [Example 153, 4-((3′-fluoro-3-(furan-3-yl)-[1,1′-biphenyl]-4-yl)(hydroxy)methyl)-N-(thiazol-2-yl)benzenesulfonamide] | 51 to 100

Next, values leading:

Row | IC50 [nM] | Structure (SMILES)
18 | > 100 | Cn1nccc1-c1nc(-c2ccc(F)cc2)ccc1Oc1cc(F)c(S(=O)(=O)Nc2cscn2)cc1Cl [Example 135, 5-chloro-2-fluoro-4-((6-(4-fluorophenyl)-2-(1-methyl-1H-pyrazol-5-yl)pyridin-3-yl)oxy)-N-(thiazol-4-yl)benzenesulfonamide]
19 | > 100 | Cn1nccc1-c1nc(-c2ccccc2F)ccc1Oc1cc(F)c(S(=O)(=O)Nc2cscn2)cc1Cl [Example 136, 5-chloro-2-fluoro-4-((6-(2-fluorophenyl)-2-(1-methyl-1H-pyrazol-5-yl)pyridin-3-yl)oxy)-N-(thiazol-4-yl)benzenesulfonamide]
20 | > 100 | Cn1nccc1-c1cc(Cl)ccc1C(O)c1ccc(S(=O)(=O)Nc2nccs2)cc1F (stereo not shown) [Example 144, 4-((4-chloro-2-(1-methyl-1H-pyrazol-5-yl)phenyl)(hydroxy)methyl)-3-fluoro-N-(thiazol-2-yl)benzenesulfonamide]
21 | > 100 | O=S(=O)(Nc1nccs1)c1ccc(C(O)c2ccc(Cl)cc2-c2ccncc2)c(F)c1 (stereo not shown) [Example 146, 4-((4-chloro-2-(pyridin-4-yl)phenyl)(hydroxy)methyl)-3-fluoro-N-(thiazol-2-yl)benzenesulfonamide]
22 | > 100 | O=S(=O)(Nc1nccs1)c1ccc(C(O)c2ccc(Cl)cc2-c2cccnc2)cc1 (stereo not shown) [Example 148, 4-((4-chloro-2-(pyridin-3-yl)phenyl)(hydroxy)methyl)-N-(thiazol-2-yl)benzenesulfonamide]
23 | > 100 | O=S(=O)(Nc1nccs1)c1ccc(C(O)c2ccc(-c3cccnc3F)cc2-c2ccoc2)cc1 (stereo not shown) [Example 150, 4-((4-(2-fluoropyridin-3-yl)-2-(furan-3-yl)phenyl)(hydroxy)methyl)-N-(thiazol-2-yl)benzenesulfonamide]
24 | > 100 | O=S(=O)(Nc1nccs1)c1ccc(C(O)c2ccc(-c3ccc(F)nc3)cc2-c2ccoc2)cc1 (stereo not shown) [Example 151, 4-((4-(6-fluoropyridin-3-yl)-2-(furan-3-yl)phenyl)(hydroxy)methyl)-N-(thiazol-2-yl)benzenesulfonamide]
25 | > 100 | O=S(=O)(Nc1nccs1)c1ccc(C(O)c2ccc(-c3ccc(F)cc3)cc2-c2ccoc2)cc1 (stereo not shown) [Example 154, 4-((4′-fluoro-3-(furan-3-yl)-[1,1′-biphenyl]-4-yl)(hydroxy)methyl)-N-(thiazol-2-yl)benzenesulfonamide]
